Where two headings read alike, the source gives them in different places.
Assays:
JNK2 = JNK2 (Homo sapiens, UniProt P45984); assay: JNK2 homogeneous time-resolved fluorescence enzyme inhibition assay; type: biochemical; conditions: mean of ≥2 experiments; read-out: Biochemical inhibition IC50 JNK2
Description: (§1) A 10-point titration of all compounds was carried out in 3-fold dilutions from 10 μM to 0.5 nM.

[1] = target: T1, panel of 374 wild-type kinases (Homo sapiens, UniProt Q86SG6); assay: biochemical; conditions: read-out: % Enzyme Activity (relative to DMSO controls), NEK8; 5 uM
T1 construct: purchased Reaction Biology Corporation

[2] = target: T2, panel of 374 wild-type kinases (Homo sapiens, UniProt Q02156); assay: biochemical; conditions: read-out: % Enzyme Activity (relative to DMSO controls), kinase PKCepsilon; 5 uM
T2 construct: purchased Reaction Biology Corporation
T2 sequence (Q02156 whole entry): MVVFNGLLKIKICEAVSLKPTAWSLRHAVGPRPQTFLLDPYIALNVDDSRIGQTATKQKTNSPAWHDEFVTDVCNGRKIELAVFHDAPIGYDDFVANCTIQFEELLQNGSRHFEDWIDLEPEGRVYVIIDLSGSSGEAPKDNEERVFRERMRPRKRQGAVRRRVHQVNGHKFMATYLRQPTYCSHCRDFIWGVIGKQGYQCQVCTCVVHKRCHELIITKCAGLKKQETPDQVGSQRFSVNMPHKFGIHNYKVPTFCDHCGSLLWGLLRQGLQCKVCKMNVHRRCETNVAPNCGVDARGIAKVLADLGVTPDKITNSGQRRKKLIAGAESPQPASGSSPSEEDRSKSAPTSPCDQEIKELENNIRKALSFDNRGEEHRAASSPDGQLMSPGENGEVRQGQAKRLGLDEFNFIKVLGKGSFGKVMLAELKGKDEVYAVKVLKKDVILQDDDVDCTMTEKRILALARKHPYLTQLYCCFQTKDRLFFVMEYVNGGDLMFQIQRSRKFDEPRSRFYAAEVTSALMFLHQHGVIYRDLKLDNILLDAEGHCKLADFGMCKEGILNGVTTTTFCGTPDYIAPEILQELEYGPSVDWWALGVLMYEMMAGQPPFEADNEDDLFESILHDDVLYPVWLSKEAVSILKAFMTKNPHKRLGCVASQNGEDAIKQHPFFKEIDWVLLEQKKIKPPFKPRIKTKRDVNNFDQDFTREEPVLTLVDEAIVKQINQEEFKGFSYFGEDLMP

[3] = target: T3, panel of 374 wild-type kinases (Homo sapiens, UniProt O14578); assay: biochemical; conditions: read-out: % Enzyme Activity (relative to DMSO controls), kinase STK21/CIT
T3 construct: purchased Reaction Biology Corporation

[4] = target: T4, panel of 374 wild-type kinases (Homo sapiens, UniProt Q00534); assay: biochemical; conditions: 5 uM
T4 construct: purchased Reaction Biology Corporation
T4 sequence (Q00534 whole entry): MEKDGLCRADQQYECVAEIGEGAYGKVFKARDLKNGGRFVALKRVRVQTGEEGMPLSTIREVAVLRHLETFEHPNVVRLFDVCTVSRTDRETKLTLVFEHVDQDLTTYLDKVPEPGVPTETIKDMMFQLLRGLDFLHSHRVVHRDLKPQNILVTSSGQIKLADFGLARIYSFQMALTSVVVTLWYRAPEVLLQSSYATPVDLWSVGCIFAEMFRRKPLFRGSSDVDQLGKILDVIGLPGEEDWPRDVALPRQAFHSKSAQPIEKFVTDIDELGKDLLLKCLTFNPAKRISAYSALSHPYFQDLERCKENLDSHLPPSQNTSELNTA

[5] = target: T5, panel of 374 wild-type kinases (Homo sapiens, UniProt P30291); assay: biochemical; conditions: read-out: % Enzyme Activity (relative to DMSO controls), kinase WEE1; 5 uM
T5 construct: purchased Reaction Biology Corporation
T5 sequence (P30291 whole entry): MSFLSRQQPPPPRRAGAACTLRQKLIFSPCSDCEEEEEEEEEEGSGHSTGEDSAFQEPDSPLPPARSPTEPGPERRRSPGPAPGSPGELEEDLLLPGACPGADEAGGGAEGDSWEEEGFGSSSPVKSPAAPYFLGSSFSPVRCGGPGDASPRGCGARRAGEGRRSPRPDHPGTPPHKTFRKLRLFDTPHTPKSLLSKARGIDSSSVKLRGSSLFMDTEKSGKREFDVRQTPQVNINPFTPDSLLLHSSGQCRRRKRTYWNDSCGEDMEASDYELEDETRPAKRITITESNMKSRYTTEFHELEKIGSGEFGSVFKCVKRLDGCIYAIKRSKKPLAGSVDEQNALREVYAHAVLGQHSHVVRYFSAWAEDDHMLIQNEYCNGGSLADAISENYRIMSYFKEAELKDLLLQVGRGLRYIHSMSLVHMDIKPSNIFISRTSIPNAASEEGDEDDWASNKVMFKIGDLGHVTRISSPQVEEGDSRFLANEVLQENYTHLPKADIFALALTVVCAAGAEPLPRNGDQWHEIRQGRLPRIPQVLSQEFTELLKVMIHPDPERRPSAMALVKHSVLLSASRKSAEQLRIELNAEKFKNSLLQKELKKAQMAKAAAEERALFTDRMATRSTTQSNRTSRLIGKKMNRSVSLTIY

[6] = target: T6, panel of 374 wild-type kinases (Homo sapiens, UniProt Q12852); assay: biochemical; conditions: read-out: % Enzyme Activity (relative to DMSO controls), DLK/MAP3K12; 5 uM
T6 construct: purchased Reaction Biology Corporation
T6 sequence (Q12852 whole entry): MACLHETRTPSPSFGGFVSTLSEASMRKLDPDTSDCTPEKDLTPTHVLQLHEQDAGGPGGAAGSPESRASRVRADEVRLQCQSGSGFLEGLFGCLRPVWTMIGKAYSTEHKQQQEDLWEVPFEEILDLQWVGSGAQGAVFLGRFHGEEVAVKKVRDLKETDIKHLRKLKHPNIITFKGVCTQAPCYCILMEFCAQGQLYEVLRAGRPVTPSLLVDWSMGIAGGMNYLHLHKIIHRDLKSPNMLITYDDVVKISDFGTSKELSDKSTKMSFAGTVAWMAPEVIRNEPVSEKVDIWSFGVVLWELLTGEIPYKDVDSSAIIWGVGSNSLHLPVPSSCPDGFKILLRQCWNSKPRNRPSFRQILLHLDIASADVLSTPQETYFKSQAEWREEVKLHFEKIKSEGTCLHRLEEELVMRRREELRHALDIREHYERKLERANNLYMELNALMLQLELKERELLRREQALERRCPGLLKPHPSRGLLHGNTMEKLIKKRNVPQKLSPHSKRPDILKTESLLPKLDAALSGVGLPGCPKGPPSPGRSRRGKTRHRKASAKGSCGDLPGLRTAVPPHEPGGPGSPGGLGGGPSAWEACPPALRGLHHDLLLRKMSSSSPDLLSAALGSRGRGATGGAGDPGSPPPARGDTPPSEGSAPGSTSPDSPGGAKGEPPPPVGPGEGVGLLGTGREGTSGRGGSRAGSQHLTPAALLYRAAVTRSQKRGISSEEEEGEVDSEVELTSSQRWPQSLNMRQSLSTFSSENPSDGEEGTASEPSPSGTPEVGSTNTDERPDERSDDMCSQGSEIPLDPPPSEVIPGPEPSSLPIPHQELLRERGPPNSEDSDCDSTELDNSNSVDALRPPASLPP

[7] = target: T7, panel of 374 wild-type kinases (Homo sapiens, UniProt Q8IY84); assay: biochemical; conditions: read-out: % Enzyme Activity (relative to DMSO controls), NIM1; 5 uM
T7 construct: purchased Reaction Biology Corporation

[8] = target: T8, panel of 374 wild-type kinases (Homo sapiens, UniProt Q9H792); assay: biochemical; conditions: read-out: % Enzyme Activity (relative to DMSO controls), kinase PEAK1; 5 uM
T8 construct: purchased Reaction Biology Corporation

[9] = target: T9, panel of 374 wild-type kinases (Homo sapiens, UniProt Q9Y572); assay: biochemical; conditions: read-out: % Enzyme Activity (relative to DMSO controls), kinase RIPK3; 5 uM
T9 construct: purchased Reaction Biology Corporation

[10] = target: T10, panel of 374 wild-type kinases (Homo sapiens, UniProt Q99640); assay: biochemical; conditions: read-out: % Enzyme Activity (relative to DMSO controls), kinase PKMYT1; 5 uM
T10 construct: purchased Reaction Biology Corporation
T10 sequence (Q99640 whole entry): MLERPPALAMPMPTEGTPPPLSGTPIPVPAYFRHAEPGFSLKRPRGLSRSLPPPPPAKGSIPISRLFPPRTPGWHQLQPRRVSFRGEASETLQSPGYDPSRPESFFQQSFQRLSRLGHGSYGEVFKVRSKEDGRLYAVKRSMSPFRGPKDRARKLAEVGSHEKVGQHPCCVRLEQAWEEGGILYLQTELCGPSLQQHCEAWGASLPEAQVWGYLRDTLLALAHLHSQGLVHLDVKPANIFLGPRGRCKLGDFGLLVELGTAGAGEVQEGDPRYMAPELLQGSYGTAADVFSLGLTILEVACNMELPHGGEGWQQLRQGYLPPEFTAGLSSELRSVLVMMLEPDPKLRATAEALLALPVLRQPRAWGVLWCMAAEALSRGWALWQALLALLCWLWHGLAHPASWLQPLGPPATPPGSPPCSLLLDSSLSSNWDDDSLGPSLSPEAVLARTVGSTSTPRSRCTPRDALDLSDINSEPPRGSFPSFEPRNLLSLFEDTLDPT

[11] = target: T11, panel of 374 wild-type kinases (Homo sapiens, UniProt Q56UN5); assay: biochemical; conditions: read-out: % Enzyme Activity (relative to DMSO controls), kinase YSK4/MAP3K19
T11 construct: purchased Reaction Biology Corporation

p38α = p38α (Homo sapiens, UniProt Q16539); assay: p38 enzyme inhibition assay; conditions: mean of ≥2 experiments; read-out: Biochemical inhibition IC50 p38α
[12] = Pharmacokinetics / brain exposure in mice; type: in vivo, C57Bl/6J mice
Description: Pharmacokinetics studies were conducted in C57Bl/6J mice. The compound was formulated in a generic formulation at 1 mg/mL (e.g. 10:40:4:46, DMSO:PEG 400: tween 80: PBS, v:v:v:v) or other specified formulations and dosed at 1 mg/kg intravenous into the femoral vein or 1-10 mg/kg by oral gavage, or […]. Blood was obtained at t=5 min, 15 min, 30 min, 1 hr, 2 hr, 4 hr, 6 hr, and 8 hr. Blood was collected by heart puncture into EDTA containing tubes and plasma was generated by standard centrifugation methods. Brains were collected following perfusion with ice-cold saline, and snap frozen in liquid N2. Both plasma and brains were stored at −80° C. until processing. All procedures and handling were according to standard operating procedures approved by […] at Scripps Florida and/or Ohio State University. In order to assess in vivo pharmacokinetic parameters an LC-MS/MS bioanalytical method was developed where 25 TI of plasma was treated with 125 TI of acetonitrile containing an internal standard in a Millipore Multscreen Slovinter 0.45 micron low binding PTFE hydrophilic filter plate (#MSRLN0450) and allowed to shake at room temperature for five minute. The plate was then centrifuged for 5 minutes at 4000 rpm in a tabletop centrifuge and the filtrate was collected in a polypropylene capture plate. The filtrate (10 TI) is injected using an Agilent 1200 HPLC equipped with a Thermo Betasil C18 HPLC column 5 T (50×2.1 mm) #70105-052130. Mobile Phase A was water with 0.1% formic acid. Mobile phase B was acetonitrile with 0.1% formic acid. […] An API Sciex 4000 equipped with a turbo ion spray source was used for all analytical measurement. MRM methods were developed in position ion mode. Peak areas of the analyte ion were measured against the peak areas of the internal standard. Data was fit using WinNonLin using an IV bolus model.

JNK1 = JNK1 (Homo sapiens, UniProt P45983); assay: JNK1 homogeneous time-resolved fluorescence enzyme inhibition assay; type: biochemical; conditions: mean of ≥2 experiments; read-out: Biochemical inhibition IC50 JNK1
Description: as §1

[13] = target: T12, panel of 374 wild-type kinases (Homo sapiens, UniProt O15111); assay: biochemical; conditions: read-out: % Enzyme Activity (relative to DMSO controls), IKKa/CHUK
T12 construct: purchased Reaction Biology Corporation

[14] = target: T13, panel of 374 wild-type kinases (Homo sapiens, UniProt O60307); assay: biochemical; conditions: read-out: % Enzyme Activity (relative to DMSO controls), MAST3
T13 construct: purchased Reaction Biology Corporation
T13 sequence (O60307 whole entry): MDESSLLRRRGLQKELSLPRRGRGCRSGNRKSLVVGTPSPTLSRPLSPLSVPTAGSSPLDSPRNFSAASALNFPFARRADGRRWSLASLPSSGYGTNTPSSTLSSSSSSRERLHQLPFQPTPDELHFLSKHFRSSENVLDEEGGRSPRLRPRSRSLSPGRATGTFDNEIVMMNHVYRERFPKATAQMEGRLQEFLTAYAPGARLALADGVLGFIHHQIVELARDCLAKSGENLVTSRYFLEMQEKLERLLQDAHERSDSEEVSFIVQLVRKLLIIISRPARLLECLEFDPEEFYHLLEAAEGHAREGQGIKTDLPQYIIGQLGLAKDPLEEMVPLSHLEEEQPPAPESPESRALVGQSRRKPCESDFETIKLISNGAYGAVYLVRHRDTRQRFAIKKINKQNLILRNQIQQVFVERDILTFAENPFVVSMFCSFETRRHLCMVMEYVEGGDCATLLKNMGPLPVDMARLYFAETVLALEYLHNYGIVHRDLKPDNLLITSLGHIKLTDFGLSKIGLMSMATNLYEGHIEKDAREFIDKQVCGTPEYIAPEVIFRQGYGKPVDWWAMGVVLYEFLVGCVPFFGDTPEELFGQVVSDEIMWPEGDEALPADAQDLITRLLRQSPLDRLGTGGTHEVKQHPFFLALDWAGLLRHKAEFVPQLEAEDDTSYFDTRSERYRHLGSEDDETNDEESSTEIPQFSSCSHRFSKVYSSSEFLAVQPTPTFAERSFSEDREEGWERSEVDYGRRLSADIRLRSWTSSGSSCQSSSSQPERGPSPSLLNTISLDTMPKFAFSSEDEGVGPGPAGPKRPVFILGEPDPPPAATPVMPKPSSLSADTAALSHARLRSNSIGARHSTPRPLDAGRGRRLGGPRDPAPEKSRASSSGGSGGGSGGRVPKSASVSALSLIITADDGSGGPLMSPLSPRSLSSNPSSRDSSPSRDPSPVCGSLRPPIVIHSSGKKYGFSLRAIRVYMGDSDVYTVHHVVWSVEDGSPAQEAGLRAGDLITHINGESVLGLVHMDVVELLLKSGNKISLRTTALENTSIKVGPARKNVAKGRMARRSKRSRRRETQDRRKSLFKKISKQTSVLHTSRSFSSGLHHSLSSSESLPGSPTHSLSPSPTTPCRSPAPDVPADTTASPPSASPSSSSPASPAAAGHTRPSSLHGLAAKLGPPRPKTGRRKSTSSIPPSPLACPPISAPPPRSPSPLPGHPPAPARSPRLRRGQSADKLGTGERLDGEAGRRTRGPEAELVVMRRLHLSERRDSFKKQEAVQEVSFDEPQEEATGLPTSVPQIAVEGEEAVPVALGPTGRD

[15] = target: T14, panel of 374 wild-type kinases (Homo sapiens, UniProt O43293); assay: biochemical; conditions: read-out: % Enzyme Activity (relative to DMSO controls), kinase ZIPK/DAPK3
T14 construct: purchased Reaction Biology Corporation

[16] = target: T15, panel of 374 wild-type kinases (Homo sapiens, UniProt P53779); assay: biochemical; conditions: read-out: % Enzyme Activity (relative to DMSO controls), JNK3; 10 uM
T15 construct: purchased Reaction Biology Corporation

[17] = target: T16, panel of 374 wild-type kinases (Homo sapiens, UniProt P68400); assay: biochemical; conditions: CK2a, read-out: % Enzyme Activity (relative to DMSO controls)
T16 construct: purchased Reaction Biology Corporation
T16 sequence (P68400 whole entry): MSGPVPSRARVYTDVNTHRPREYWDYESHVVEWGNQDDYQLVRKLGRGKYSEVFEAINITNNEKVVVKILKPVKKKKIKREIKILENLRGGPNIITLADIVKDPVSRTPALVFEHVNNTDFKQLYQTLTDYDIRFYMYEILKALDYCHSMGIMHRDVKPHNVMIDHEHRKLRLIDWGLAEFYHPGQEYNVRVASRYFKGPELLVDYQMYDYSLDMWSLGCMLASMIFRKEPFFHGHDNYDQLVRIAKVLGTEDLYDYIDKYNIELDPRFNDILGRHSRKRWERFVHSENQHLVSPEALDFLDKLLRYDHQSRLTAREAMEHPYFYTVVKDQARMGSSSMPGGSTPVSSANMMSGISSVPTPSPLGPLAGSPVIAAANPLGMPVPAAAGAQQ

[18] = read-out: % Enzyme Activity (relative to DMSO controls), CDK6/cyclin D1
[19] = read-out: % Enzyme Activity (relative to DMSO controls), CDK6/cyclin D3

Work on O=C(Nc1cnn(-c2csc(C(=O)NC3COC3)c2)c1)Nc1ccccc1Cl [Compound 17, 4-(4-(3-(2-chlorophenyl)ureido)-1H-pyrazol-1-yl)-N-(oxetan-3-yl)thiophene-2-carboxamide] yielded an IC50 (JNK2) of 1.36 µM, a remaining activity at 5 µM [1] of 107% and a remaining activity at 5 µM [2] of 102%. The remaining activity at 5 µM ([3]; 5 uM) was 90.1%, the remaining activity at 5 µM [4, 18] was 95.4% and the remaining activity at 5 µM [4, 19] was 114%. For the same molecule, the remaining activity at 5 µM [5] was 124%, the remaining activity at 5 µM [6] was 96.5% and the remaining activity at 5 µM [7] was 101%. For the same molecule, the remaining activity at 5 µM [8] was 91.4%, the remaining activity at 5 µM [9] was 101% and the remaining activity at 5 µM [10] was 87%. For the same molecule, the remaining activity at 5 µM ([11]; 5 uM) was 105%, the IC50 (p38α) was > 20 µM and the brain penetration capability ([12]; po dosing) was “brain penetrant”. For the same molecule, the oral bioavailability ([12]; po dosing) was “has oral bioavailability”, the “Brain Concentration” value ([12]; po, 10 mg/kg) was 1080 nM and the “Plasma Concentration” value ([12]; po, 10 mg/kg) was 960 nM. For the same molecule, the IC50 (JNK1) was 5.9 µM.
Cc1sc(C(=O)NC2COC2)cc1-n1cc(NC(=O)Nc2c(F)cccc2Cl)cn1 [Compound 27, 4-(4-(3-(2-chloro-6-fluorophenyl)ureido)-1H-pyrazol-1-yl)-5-methyl-N-(oxetan-3-yl)thiophene-2-carboxamide] gave a remaining activity at 10 µM ([13]; 10 uM) of 101%, a remaining activity at 10 µM ([14]; 10 uM) of 96.7% and a remaining activity at 10 µM ([15]; 10 uM) of 101%. The remaining activity at 10 µM ([3]; 10 uM) was 98.8%, the remaining activity at 10 µM [16] was 10.5% and the remaining activity at 10 µM ([17]; 10 uM) was 97%. The remaining activity at 10 µM ([11]; 10 uM) was 95.5%.
O=C(Nc1cnn(-c2csc(C(=O)NC3COC3)c2)c1)Nc1c(F)cccc1Cl [Compound 25, 4-(4-(3-(2-chloro-6-fluorophenyl)ureido)-1H-pyrazol-1-yl)-N-(oxetan-3-yl)thiophene-2-carboxamide] showed a remaining activity at 5 µM ([13]; 5 uM) of 108%, a remaining activity at 5 µM [2] of 94.2% and a remaining activity at 5 µM ([14]; 5 uM) of 108%. It also gave a remaining activity at 5 µM ([15]; 5 uM) of 108%, a remaining activity at 5 µM [4, 18] of 105% and a remaining activity at 5 µM [4, 19] of 92.6%. It also gave a remaining activity at 5 µM [5] of 85.2%, a remaining activity at 5 µM [6] of 82.2% and a remaining activity at 5 µM [7] of 70.7%. For the same molecule, the remaining activity at 5 µM ([17]; 5 uM) was 90.5%, the remaining activity at 5 µM [9] was 97.5% and the remaining activity at 5 µM [10] was 89.6%.
